Results reported in ChEMBL document CHEMBL1201862, “PubChem BioAssay data set” (2004).
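A five-concentration, 48-hour dose response in 96-well plates underlies each endpoint, interpolated linearly between surrounding concentrations. GI50: concentration for 50% inhibition of growth.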 The source made the active and inactive calls. No stated cut-off is given here; in the data, active = GI50 up to about 1.1 µM and inactive = higher.

Columns and labels:
Assay in all cases: inhibition of tumour cell growth, NCI panel, 48 h
[1] = test system: IGROV-1
[2] = test system: Malme-3M
[3] = test system: DU-145
[4] = test system: A549
[5] = test system: SW-620
[6] = test system: T47D
[7] = test system: BT-549
[8] = test system: NCI-H522
[9] = test system: NCI-H23
[10] = test system: SNB-75
[11] = test system: UACC-62
[12] = test system: CAKI-1
[13] = test system: HCC 2998
[14] = test system: HT-29
[15] = test system: RXF 393
[16] = test system: MOLT-4
[17] = test system: HOP-92
[18] = test system: 786-0
[19] = test system: A498
[20] = test system: CCRF-CEM

SMILES | GI50 [1] | GI50 [2] | GI50 [3] | GI50 [4] | GI50 [5] | GI50 [6] | GI50 [7] | GI50 [8] | GI50 [9] | GI50 [10] | GI50 [11] | GI50 [12] | GI50 [13] | GI50 [14] | GI50 [15] | GI50 [16] | GI50 [17] | GI50 [18] | GI50 [19] | GI50 [20]
CCOC(=O)c1c(N)sc2c1CC(C)CC2 (configuration not stated) | 57.4 µM (inactive) | 38 µM (inactive) | 67.5 µM (inactive) | 38.5 µM (inactive) | 55.6 µM (inactive) | 32.5 µM (inactive) | 54.2 µM (inactive) | 18.4 µM (inactive) | 63.7 µM (inactive) | 26.5 µM (inactive) | 51.2 µM (inactive) | 49 µM (inactive) | 19.7 µM (inactive) | 22.4 µM (inactive) | 18.6 µM (inactive) | 30.9 µM (inactive) | 27.7 µM (inactive) | 23.4 µM (inactive) |  | 
CN1CCC2(CC1)C(=O)N(N1CCCCCC1)C(=O)N2c1ccccc1 | > 100 µM (inactive) | > 100 µM (inactive) | > 100 µM (inactive) | > 100 µM (inactive) | > 100 µM (inactive) | > 100 µM (inactive) | > 100 µM (inactive) | 57.7 µM (inactive) | > 100 µM (inactive) | 31.9 µM (inactive) | 96.6 µM (inactive) | > 100 µM (inactive) | > 100 µM (inactive) | 60.5 µM (inactive) | 31.3 µM (inactive) | > 100 µM (inactive) |  | > 100 µM (inactive) | 34.7 µM (inactive) | > 100 µM (inactive)
Cc1c2ccccc2nc2[nH]c3ccncc3c12 | 29.5 µM (inactive) | 31 µM (inactive) | 34.5 µM (inactive) | 30.7 µM (inactive) | 23.9 µM (inactive) | 33.7 µM (inactive) | 40.6 µM (inactive) | 36.1 µM (inactive) | 33 µM (inactive) | 86.3 µM (inactive) | 25.4 µM (inactive) | 25.2 µM (inactive) |  | 28.2 µM (inactive) |  | > 100 µM (inactive) | 33 µM (inactive) | 16.3 µM (inactive) | 42.9 µM (inactive) | 0.957 µM (active)
S=c1[nH]nc(COc2ccc3c(c2)CCCC3)n1/N=C/c1ccc(Cl)cc1 | 16.4 µM (inactive) | 17 µM (inactive) | 15.5 µM (inactive) | 18.7 µM (inactive) | 17.4 µM (inactive) | 12.1 µM (inactive) | 17 µM (inactive) | 14.1 µM (inactive) | 19.5 µM (inactive) |  | 19.1 µM (inactive) | 18.6 µM (inactive) |  |  | 14.4 µM (inactive) | 19.4 µM (inactive) | 14.7 µM (inactive) |  |  | 32.1 µM (inactive)
N=c1c2ccccc2nc2oc3cc([N+](=O)[O-])ccc3n12 | 27.4 µM (inactive) | 25.9 µM (inactive) |  | 40.1 µM (inactive) | 61.1 µM (inactive) | < 0.01 µM (active) | 20.2 µM (inactive) | 32.2 µM (inactive) | 16.6 µM (inactive) | 5.61 µM (inactive) | 47.3 µM (inactive) | 25.4 µM (inactive) | > 100 µM (inactive) | > 100 µM (inactive) | 7.38 µM (inactive) | > 100 µM (inactive) |  | 24.7 µM (inactive) |  | > 100 µM (inactive)
O=C(/C=C/c1ccc2c(c1)OCO2)NCCc1ccco1 | 19.5 µM (inactive) | 41.6 µM (inactive) | > 100 µM (inactive) | 89.5 µM (inactive) | > 100 µM (inactive) | 26.5 µM (inactive) | > 100 µM (inactive) | 37.9 µM (inactive) | > 100 µM (inactive) | > 100 µM (inactive) | 44.2 µM (inactive) | 52.5 µM (inactive) | > 100 µM (inactive) | > 100 µM (inactive) | > 100 µM (inactive) | 48.9 µM (inactive) | 92.7 µM (inactive) |  |  | 59.8 µM (inactive)
C/C(=C/C(=O)N(C)c1ccccc1Cl)O[Si](C(C)C)(C(C)C)C(C)C | 23.1 µM (inactive) | 23.9 µM (inactive) | 32.1 µM (inactive) | 36.1 µM (inactive) | 19.4 µM (inactive) | 31.3 µM (inactive) | 22.5 µM (inactive) | 15.4 µM (inactive) | 24.7 µM (inactive) | 29.4 µM (inactive) |  | 40.7 µM (inactive) |  | 17.6 µM (inactive) | 17.3 µM (inactive) | 40.4 µM (inactive) | 16.1 µM (inactive) | 18.1 µM (inactive) | > 10 µM (inactive) | 
CN(C)Cc1cc(/C=C/C(=O)c2ccc(Cl)c(Cl)c2)cc(CN(C)C)c1O | 9.98 µM (inactive) | 9.59 µM (inactive) | 13.9 µM (inactive) | 15.9 µM (inactive) | 12.9 µM (inactive) | 11 µM (inactive) | 7.74 µM (inactive) |  |  | 9.12 µM (inactive) | 14.3 µM (inactive) | 9.02 µM (inactive) | 6.35 µM (inactive) | 10.8 µM (inactive) | 11 µM (inactive) | 10.1 µM (inactive) |  | 9.4 µM (inactive) | 16.1 µM (inactive) | 5.02 µM (inactive)
CCOC(=O)/C=C(\N=P(c1ccccc1)(c1ccccc1)c1ccccc1)C(F)(F)C(F)(F)C(F)(F)C(F)(F)C(F)(F)F | > 100 µM (inactive) | > 100 µM (inactive) | > 100 µM (inactive) | > 100 µM (inactive) | > 100 µM (inactive) | > 100 µM (inactive) | > 100 µM (inactive) |  | > 100 µM (inactive) | > 100 µM (inactive) | > 100 µM (inactive) | > 100 µM (inactive) | > 100 µM (inactive) | > 100 µM (inactive) | > 100 µM (inactive) | > 100 µM (inactive) | > 100 µM (inactive) | > 100 µM (inactive) | 0.0675 µM (active) | > 100 µM (inactive)
CN(C)S(=O)(=O)n1cnc(CO)c1 | > 100 µM (inactive) | > 100 µM (inactive) |  | > 100 µM (inactive) | > 100 µM (inactive) | > 100 µM (inactive) | > 100 µM (inactive) | > 100 µM (inactive) | > 100 µM (inactive) | > 100 µM (inactive) |  | > 100 µM (inactive) | > 100 µM (inactive) |  | > 100 µM (inactive) | > 100 µM (inactive) | > 100 µM (inactive) | > 100 µM (inactive) | > 100 µM (inactive) | 
c1ccc(CN[C@]23C4C5CC6C7C5C2C7[C@@](NCc2ccccc2)(C64)N3Cc2ccccc2)cc1 (some centres not stated) | > 100 µM (inactive) | > 100 µM (inactive) | > 100 µM (inactive) | > 100 µM (inactive) | > 100 µM (inactive) | > 100 µM (inactive) | > 100 µM (inactive) | 91.8 µM (inactive) | > 100 µM (inactive) | > 100 µM (inactive) | > 100 µM (inactive) | > 100 µM (inactive) |  | > 100 µM (inactive) | > 100 µM (inactive) | > 100 µM (inactive) | > 100 µM (inactive) | > 100 µM (inactive) | > 100 µM (inactive) | > 100 µM (inactive)
CCOC(=O)C(NC(=O)c1ccccc1)(Nc1ccc(S(=O)(=O)Nc2cc(C)on2)cc1)C(F)(F)F (configuration not stated) | > 100 µM (inactive) | > 100 µM (inactive) | > 100 µM (inactive) | > 100 µM (inactive) | > 100 µM (inactive) | > 100 µM (inactive) | > 100 µM (inactive) | > 100 µM (inactive) | > 10 µM (inactive) | > 100 µM (inactive) | > 100 µM (inactive) | > 100 µM (inactive) | > 100 µM (inactive) | > 100 µM (inactive) | > 100 µM (inactive) | > 100 µM (inactive) | > 100 µM (inactive) | > 100 µM (inactive) |  | > 100 µM (inactive)
COc1ccc(Oc2nc(C#CC(C)(C)O)nc(Oc3ccc(OC)cc3)n2)cc1 | 5.45 µM (inactive) | 16.2 µM (inactive) | 2.62 µM (inactive) | 15.1 µM (inactive) | 1.84 µM (inactive) | 4.53 µM (inactive) | 14.9 µM (inactive) | 3.2 µM (inactive) | 7.74 µM (inactive) | 15.1 µM (inactive) | 11.6 µM (inactive) | 3.67 µM (inactive) |  | 3.3 µM (inactive) | 1.39 µM (inactive) | 1.53 µM (inactive) |  |  | 17.8 µM (inactive) | 1.43 µM (inactive)
Cc1cc(C)c(/C=C(\C(=C/c2c(C)cc(C)cc2C)[N+](=O)[O-])[N+](=O)[O-])c(C)c1 | > 100 µM (inactive) |  | > 100 µM (inactive) | > 100 µM (inactive) | > 100 µM (inactive) | 78.9 µM (inactive) | > 100 µM (inactive) |  | > 100 µM (inactive) | > 100 µM (inactive) | > 100 µM (inactive) | > 100 µM (inactive) | > 100 µM (inactive) | > 100 µM (inactive) | 20.6 µM (inactive) | 32.7 µM (inactive) | > 100 µM (inactive) |  |  | 41.6 µM (inactive)
COC(=O)C1(NC(=O)C(CC(=O)OCc2ccccc2)NC(=O)OCc2ccccc2)CCCCCCC1 (configuration not stated) | 30 µM (inactive) |  | > 100 µM (inactive) | 32.1 µM (inactive) | 31.3 µM (inactive) | 17.6 µM (inactive) | 23.9 µM (inactive) | 13 µM (inactive) | 46.6 µM (inactive) | 28.6 µM (inactive) | 24.3 µM (inactive) | 31.1 µM (inactive) |  | 24.6 µM (inactive) | 15.4 µM (inactive) | 4.69 µM (inactive) | 42.9 µM (inactive) | 63.8 µM (inactive) | 13.6 µM (inactive) | 
